In PubChem BioAssay (NCI):
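Exposure lasted 48 hours, with cells grown in 96-well plates and compounds tested at five concentrations. GI50 = concentration required for 50% inhibition of growth. TGI is the concentration that stops growth completely.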

Columns and labels:
Assay in all cases: NCI anticancer screen, dose series, 48 h
PC-3 prostate = tested on: PC-3 prostate
SF-539 CNS = tested on: SF-539 CNS
NCI/ADR-RES ovarian = tested on: NCI/ADR-RES ovarian
NCI-H460 lung = tested on: NCI-H460 lung
UACC-62 melanoma = tested on: UACC-62 melanoma
SNB-75 CNS = tested on: SNB-75 CNS
DU-145 prostate = tested on: DU-145 prostate
SF-268 CNS = tested on: SF-268 CNS
KM12 colon = tested on: KM12 colon
OVCAR-8 ovarian = tested on: OVCAR-8 ovarian
CCRF-CEM leukemia = tested on: CCRF-CEM leukemia
A498 renal = tested on: A498 renal
MOLT-4 leukemia = tested on: MOLT-4 leukemia
MALME-3M melanoma = tested on: MALME-3M melanoma
TK-10 renal = tested on: TK-10 renal
K-562 leukemia = tested on: K-562 leukemia
OVCAR-4 ovarian = tested on: OVCAR-4 ovarian
HCC-2998 colon = tested on: HCC-2998 colon
RPMI-8226 leukemia = tested on: RPMI-8226 leukemia
NCI-H226 lung = tested on: NCI-H226 lung
OVCAR-5 ovarian = tested on: OVCAR-5 ovarian
HOP-62 NSCLC = tested on: HOP-62 NSCLC
786-0 renal = tested on: 786-0 renal
SR leukemia = tested on: SR leukemia
SN12C renal = tested on: SN12C renal
SK-OV-3 ovarian = tested on: SK-OV-3 ovarian

Compound: CC(=O)Nc1ccc(NC(=O)Nc2cccc(-c3nc(-c4ccc(NC(=O)c5cccnc5)cc4Cl)no3)c2)cc1C(F)(F)F
- GI50 (PC-3 prostate): 0.477 µM
- TGI (PC-3 prostate): 2.18 µM
- GI50 (SF-539 CNS): 0.341 µM
- TGI (SF-539 CNS): 1.25 µM
- GI50 (NCI/ADR-RES ovarian): > 100 µM
- TGI (NCI/ADR-RES ovarian): > 100 µM
- GI50 (NCI-H460 lung): 0.411 µM
- TGI (NCI-H460 lung): 1.48 µM
- GI50 (UACC-62 melanoma): 0.412 µM
- TGI (UACC-62 melanoma): 1.63 µM
- GI50 (SNB-75 CNS): 0.217 µM
- TGI (SNB-75 CNS): 0.814 µM
- GI50 (DU-145 prostate): 0.519 µM
- TGI (DU-145 prostate): 4.32 µM
- GI50 (SF-268 CNS): 1.1 µM
- TGI (SF-268 CNS): 3.38 µM
- GI50 (KM12 colon): 0.438 µM
- TGI (KM12 colon): 1.79 µM
- GI50 (OVCAR-8 ovarian): 0.712 µM
- TGI (OVCAR-8 ovarian): 3.25 µM
- GI50 (CCRF-CEM leukemia): 0.395 µM
- TGI (CCRF-CEM leukemia): > 100 µM
- GI50 (A498 renal): 0.435 µM
- TGI (A498 renal): 1.51 µM
- GI50 (MOLT-4 leukemia): 0.62 µM
- TGI (MOLT-4 leukemia): 3 µM
- GI50 (MALME-3M melanoma): 0.479 µM
- TGI (MALME-3M melanoma): 1.74 µM
- GI50 (TK-10 renal): 1.99 µM
- TGI (TK-10 renal): 4.67 µM
- GI50 (K-562 leukemia): 0.32 µM
- TGI (K-562 leukemia): 1.76 µM
- GI50 (OVCAR-4 ovarian): 1.07 µM
- TGI (OVCAR-4 ovarian): 2.62 µM
- GI50 (HCC-2998 colon): 0.998 µM
- TGI (HCC-2998 colon): 2.56 µM
- GI50 (RPMI-8226 leukemia): 0.538 µM
- TGI (RPMI-8226 leukemia): 2.9 µM
- GI50 (NCI-H226 lung): 0.729 µM
- TGI (NCI-H226 lung): 2.24 µM
- GI50 (OVCAR-5 ovarian): 0.987 µM
- TGI (OVCAR-5 ovarian): 2.64 µM
- GI50 (HOP-62 NSCLC): 0.739 µM
- TGI (HOP-62 NSCLC): 2.7 µM
- GI50 (786-0 renal): 1.12 µM
- TGI (786-0 renal): 2.72 µM
- GI50 (SR leukemia): 0.296 µM
- TGI (SR leukemia): 2.35 µM
- GI50 (SN12C renal): 0.685 µM
- TGI (SN12C renal): 2.12 µM
- GI50 (SK-OV-3 ovarian): 1.29 µM
